The series has as its system CCRIS mutagenicity, Ames/micronucleus/aberration tests. Description: CCRIS mutagenicity studies.
Setting [1] is: Test System: AMES SALMONELLA TYPHIMURIUM, Strain/Indicator: TA98, Metabolic Activation: NONE, Method: PREINCUBATION
[2] abbreviates: Test System: AMES SALMONELLA TYPHIMURIUM, Strain/Indicator: TA100, Metabolic Activation: NONE, Method: PREINCUBATION
Where [3] appears, read: Test System: AMES SALMONELLA TYPHIMURIUM, Strain/Indicator: TA100, Metabolic Activation: RAT, LIVER, S-9, AROCLOR 1254, Method: STANDARD PLATE.

The source of these data is PubChem BioAssay AID1259407 (Chemical Carcinogenesis Research Information System (CCRIS), 2018).

The source made the active and inactive calls. How the calls were made is not given here.

Take `Oc1cc(Cl)ccc1Oc1ccc(Cl)cc1Cl`: the mutagenic call runs as follows: (End Point: In vitro chromosomal aberrations, Test System: Chinese hamster ovary strain K1-BH4 cells, Metabolic Activation: None) “inactive; negative”; (End Point: In vitro chromosomal aberrations, Test System: Chinese hamster ovary strain K1-BH4 cells, Metabolic Activation: S-9) “inactive; negative”; (End Point: In vivo chromosomal aberrations, Test System: Bone marrow, Species: Rat, Strain/Sex: Wistar/Female, Route: Gavage) “inactive; negative”; (End Point: In vivo chromosomal aberrations, Test System: Bone marrow, Species: Rat, Strain/Sex: Wistar/Male, Route: Gavage) “inactive; negative”; (End Point: In vivo micronucleus, Test System: Bone marrow, Species: Mouse, Strain/Sex: CD-1 SPF Swiss albino, Route: Gavage) “inactive; negative”; (Test System: Ames Salmonella typhimurium, Strain/Indicator: TA98, Metabolic Activation: None, Method: Preincubation) “inactive; negative”. For the same compound, the mutagenic call was “inactive; negative” (Test System: Ames Salmonella typhimurium, Strain/Indicator: TA98, Metabolic Activation: None, Method: Standard Plate); “inactive; negative” (Test System: Ames Salmonella typhimurium, Strain/Indicator: TA98, Metabolic Activation: S-9, Method: Preincubation); “inactive; negative” (Test System: Ames Salmonella typhimurium, Strain/Indicator: TA98, Metabolic Activation: S-9, Method: Standard Plate); “inactive; negative” (Test System: Ames Salmonella typhimurium, Strain/Indicator: TA100, Metabolic Activation: None, Method: Preincubation); “inactive; negative” (Test System: Ames Salmonella typhimurium, Strain/Indicator: TA100, Metabolic Activation: None, Method: Standard Plate); “inactive; negative” (Test System: Ames Salmonella typhimurium, Strain/Indicator: TA100, Metabolic Activation: S-9, Method: Preincubation). Also, the mutagenic call runs as follows: (Test System: Ames Salmonella typhimurium, Strain/Indicator: TA100, Metabolic Activation: S-9, Method: Standard Plate) “inactive; negative”; (Test System: Ames Salmonella typhimurium, Strain/Indicator: TA 1535, Metabolic Activation: None, Method: Preincubation) “inactive; negative”; (Test System: Ames Salmonella typhimurium, Strain/Indicator: TA 1535, Metabolic Activation: None, Method: Standard Plate) “inactive; negative”; (Test System: Ames Salmonella typhimurium, Strain/Indicator: TA 1535, Metabolic Activation: S-9, Method: Preincubation) “inactive; negative”; (Test System: Ames Salmonella typhimurium, Strain/Indicator: TA 1535, Metabolic Activation: S-9, Method: Standard Plate) “inactive; negative”; (Test System: Ames Salmonella typhimurium, Strain/Indicator: TA1537, Metabolic Activation: None, Method: Preincubation) “inactive; negative”. Besides, the mutagenic call was “inactive; negative” (Test System: Ames Salmonella typhimurium, Strain/Indicator: TA1537, Metabolic Activation: None, Method: Standard Plate); “inactive; negative” (Test System: Ames Salmonella typhimurium, Strain/Indicator: TA1537, Metabolic Activation: S-9, Method: Preincubation); “inactive; negative” (Test System: Ames Salmonella typhimurium, Strain/Indicator: TA1537, Metabolic Activation: S-9, Method: Standard Plate); “inactive; negative” (Test System: Ames Salmonella typhimurium, Strain/Indicator: TA1538, Metabolic Activation: None, Method: Standard Plate); “inactive; negative” (Test System: Ames Salmonella typhimurium, Strain/Indicator: TA1538, Metabolic Activation: S-9, Method: Standard Plate).

For `[Be+2]`, the mutagenic call is “inactive; negative” under setting [1]; “inactive; negative” (Test System: AMES SALMONELLA TYPHIMURIUM, Strain/Indicator: TA98, Metabolic Activation: RAT, LIVER, S-9, (10%), Method: PREINCUBATION); “inactive; negative” under setting [2]; “inactive; negative” (Test System: AMES SALMONELLA TYPHIMURIUM, Strain/Indicator: TA100, Metabolic Activation: RAT,LIVER, S-9 (10%), Method: PREINCUBATION).

Take `c1ccc2c(c1)Cc1ccc3ccc4ccccc4c3c1-2`: the mutagenic call under setting [3] is “inactive; negative”.

Turning to `Cc1cc(Cl)ccc1OCCCC(=O)O`, the mutagenic call runs as follows: (Test System: AMES SALMONELLA TYPHIMURIUM, Strain/Indicator: TA97, Metabolic Activation: NONE, Method: STANDARD PLATE) “inactive; negative”; (Test System: AMES SALMONELLA TYPHIMURIUM, Strain/Indicator: TA97, Metabolic Activation: RAT, LIVER, S-9, AROCLOR 1254, Method: STANDARD PLATE) “inactive; negative”; (Test System: AMES SALMONELLA TYPHIMURIUM, Strain/Indicator: TA98, Metabolic Activation: NONE, Method: STANDARD PLATE) “inactive; negative”; (Test System: AMES SALMONELLA TYPHIMURIUM, Strain/Indicator: TA98, Metabolic Activation: RAT, LIVER, S-9, AROCLOR 1254, Method: STANDARD PLATE) “inactive; negative”; (Test System: AMES SALMONELLA TYPHIMURIUM, Strain/Indicator: TA100, Metabolic Activation: NONE, Method: STANDARD PLATE) “inactive; negative”; under setting [3], “inactive; negative”. Moreover, the mutagenic call is, setting by setting: (Test System: AMES SALMONELLA TYPHIMURIUM, Strain/Indicator: TA102, Metabolic Activation: NONE, Method: STANDARD PLATE) “inactive; negative”; (Test System: AMES SALMONELLA TYPHIMURIUM, Strain/Indicator: TA102, Metabolic Activation: RAT, LIVER, S-9, AROCLOR 1254, Method: STANDARD PLATE) “inactive; negative”.

As to `Cc1cc2c(c3ccc4ccccc4c13)[C@H]1O[C@H]1[C@@H](O)[C@@H]2O`, the mutagenic call under setting [2] is “inactive; negative”.

`CCc1c2ccccc2c(CC)c2c1ccc1ccccc12`: the mutagenic call (Test System: AMES SALMONELLA TYPHIMURIUM, Strain/Indicator: TA98, Method: STANDARD PLATE) was “inactive; negative”; the mutagenic call (Test System: AMES SALMONELLA TYPHIMURIUM, Strain/Indicator: TA100, Metabolic Activation: RAT, LIVER, S-9, PHENOBARBITAL, Method: STANDARD PLATE) was “inactive; negative”; the mutagenic call (Test System: AMES SALMONELLA TYPHIMURIUM, Strain/Indicator: TA100, Method: STANDARD PLATE) is “inactive; negative”.

Regarding `NC[N+](=O)[O-]`, the mutagenic call is, setting by setting: (Test System: AMES SALMONELLA TYPHIMURIUM, Strain/Indicator: TA100, Metabolic Activation: RAT, LIVER, S-9, AROCLOR 1254, Method: PREINCUBATION) “inactive; negative”; (Test System: AMES SALMONELLA TYPHIMURIUM, Strain/Indicator: TA1535, Metabolic Activation: RAT, LIVER, S-9, AROCLOR 1254, Method: PREINCUBATION) “inactive; negative”.

For `CC(=O)N(C(C)=O)c1cc(N=Nc2ccc(C)cc2)ccc1C`, the mutagenic call runs as follows: (Test System: AMES SALMONELLA TYPHIMURIUM, Strain/Indicator: TA98, Metabolic Activation: NONE, Method: SUSPENSION/PLATE) “inactive; negative”; (Test System: AMES SALMONELLA TYPHIMURIUM, Strain/Indicator: TA98, Metabolic Activation: RAT, LIVER, S-9, PHENOBARBITAL AND 5,6-BENZOFLAVONE, Method: SUSPENSION/PLATE) “inactive; negative”; (Test System: AMES SALMONELLA TYPHIMURIUM, Strain/Indicator: TA100, Metabolic Activation: NONE, Method: SUSPENSION/PLATE) “inactive; negative”; (Test System: AMES SALMONELLA TYPHIMURIUM, Strain/Indicator: TA100, Metabolic Activation: RAT, LIVER, S-9, PHENOBARBITAL AND 5,6-BENZOFLAVONE, Method: SUSPENSION/PLATE) “inactive; negative”.

Take `OCc1ccc2ccc3cccc4ccc1c2c34`: the mutagenic call reads like this: (Test System: AMES SALMONELLA TYPHIMURIUM, Strain/Indicator: TA98, Metabolic Activation: HUMAN, LIVER, CYTOSOL, PAPS, Method: PREINCUBATION) “active; positive”; under setting [1], “inactive; negative”; (Test System: AMES SALMONELLA TYPHIMURIUM, Strain/Indicator: TA98, Metabolic Activation: RAT, LIVER, CYTOSOL, KCL, Method: PREINCUBATION) “inactive; negative”; (Test System: AMES SALMONELLA TYPHIMURIUM, Strain/Indicator: TA98, Metabolic Activation: RAT, LIVER, CYTOSOL, PAPS, KCL, Method: PREINCUBATION) “active; positive”; (Test System: AMES SALMONELLA TYPHIMURIUM, Strain/Indicator: TA98, Metabolic Activation: RAT, LIVER, CYTOSOL, PAPS, Method: PREINCUBATION) “active; positive”; (Test System: AMES SALMONELLA TYPHIMURIUM, Strain/Indicator: TA98, Metabolic Activation: RAT, LIVER, PAPS, KCL, Method: PREINCUBATION) “inactive; negative”. Further, the mutagenic call (Test System: AMES SALMONELLA TYPHIMURIUM, Strain/Indicator: TA98, Metabolic Activation: RAT, LIVER, S-9, NADPH, Method: PREINCUBATION) was “active; positive”; the mutagenic call (Test System: UDS CHINESE HAMSTER V-79 CELLS, Metabolic Activation: NONE, Method: AUTORADIOGRAPHY) is “active; positive”; the mutagenic call (Test System: UDS CHINESE HAMSTER V-79 CELLS, Strain/Indicator: V-79-MZ/CYTIDINE INCORPORATION, Metabolic Activation: NONE, Method: AUTORADIOGRAPHY) was “inactive; negative”; the mutagenic call (Test System: UDS CHINESE HAMSTER V-79 CELLS, Strain/Indicator: V-79-RHST20/CYTIDINE INCORPORATION, Metabolic Activation: NONE, Method: AUTORADIOGRAPHY) is “active; positive”; the mutagenic call (Test System: UDS CHINESE HAMSTER V-79 CELLS, Strain/Indicator: V-79-RHSTA/CYTIDINE INCORPORATION, Metabolic Activation: NONE, Method: AUTORADIOGRAPHY) was “active; positive”; the mutagenic call (Test System: UDS CHINESE HAMSTER V-79 CELLS, Strain/Indicator: V-79-RPST-IV/CYTIDINE INCORPORATION, Metabolic Activation: NONE, Method: AUTORADIOGRAPHY) was “active; positive”.
